Values of other authors as cited in patent US20260092079A1, “MANUFACTURE METHOD FOR AQUEOUS FORMULATION OF MANGANESE-CONTAINING COORDINATION COMPLEX, FORMULATION, AND METHOD OF TREATMENT” (GALERA LABS, LLC, priority 2019, published 2026).

Key:
[1] = test system: experimental model of colitis; settings: rats
[2] = test system: radiation-induced oral mucositis; settings: hamster, acute radiation-induced oral mucositis
[3] = test system: lethal total body irradiation; settings: adult mice
[4] = test system: inflammation; settings: rat model
[5] = test system: collagen-induced arthritis; settings: rat
[6] = test system: VEGFr inhibitor-induced pulmonary disease; settings: rat model
[7] = test system: oral mucositis; settings: head-and-neck cancer patients undergoing chemoradiation therapy

Row | SMILES | Injury to the colon [1] | Radiation damage [2] | Radiation damage [3] | Inflammation [4] | Joint disease [5] | VEGFr inhibitor-induced pulmonary disease [6] | Oral mucositis [7]
1 | [Cl-].[Cl-].[Mn+2].c1cc2nc(c1)CN[C@@H]1CCCC[C@H]1NCCN[C@@H]1CCCC[C@H]1NC2 [GC4403] | very significantly reduce the injury to the colon | attenuate the radiation damage | attenuate the radiation damage | inhibit inflammation | prevent joint disease | – | –
2 | [Cl][Mn][Cl].c1cc2nc(c1)CN[C@H]1CCCC[C@@H]1NCCN[C@H]1CCCC[C@@H]1NC2 [GC4419] | – | – | – | – | – | attenuate VEGFr inhibitor-induced pulmonary disease | reduce oral mucositis
